Assay results reported in PubChem BioAssay AID1208 (EPA DSSTox, 2008).
Activity calls are given as the source filed them.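 The calls were made as follows: active = at least one rat sex group has a carcinogenic potency value and tumor site recorded; inconclusive = only rat studies were judged inadequate by the national testing program; inactive = no potency or tumor site, with negative rat experiments.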 Where a SMILES comes first, the peptide text is derived from it.

System: rat chronic carcinogenicity bioassay, TD50
Assay: DSSTox (CPDBAS) Carcinogenic Potency Database Summary Rat Bioassay Results
Conditions: for Potency: stronger effect = lower value
Source text: The Carcinogenic Potency Database (CPDB) is a unique and widely used international resource of the results of over 6500 chronic, long-term animal cancer tests on over 1500 chemical substances. The CPDB provides easy access to the bioassay literature, with qualitative and quantitative analyses of both positive and negative experiments that have been published over the past 50 years in the general literature and by the National Cancer Institute/National Toxicology Program. The CPDB standardizes the diverse literature of cancer bioassays that vary widely in protocol, histopathological examination and nomenclature, and in the published author's choices of what information to provide in their papers. Results are reported in the CPDB for tests in rats, mice, hamsters, dogs, and nonhuman primates, and are based on the most positive result among all experiments for each sex-species. The DSSTox CPDBAS (all species) file incorporates data from the CPDB Summary Tables for the full list of over 1500 chemical substances tested in at least one species. Summary bioassay results for Rat (TD50, tumor sites, male, female, both sexes) are provided in the CPDB Summary Tables and the DSSTox CPDBAS file for over 1200 chemical substances.
TD50 is a standardized quantitative measure of carcinogenic potency (analogous to an LD50) and is reported in the CPDB Summary Table for each species. Activity Score for actives is computed by mapping of LOG10 (1/TD50_Rat_mmol) activity values spanning range [MIN, MAX] onto Integer 1-100 Activity Score range, where 100 is highest potency and 1 is lowest: Activity Score = 100 * INTEGER[(log10(1/Activity) - MIN)/(MAX - MIN)]. If activity is reported but no TD50_Rat_mmol value is computed, such as for a mixture, the Activity Score is assigned the activity value "50". […] Target sites are reported for each sex-species group with a positive result in the CPDB on the basis of a positive author's opinion for the particular site, using all results from both the general literature and NCI/NTP bioassays. If a chemical has two or more target sites listed, the results may be from different experiments, and a single site may be a target organ in more than one experiment, as well. Blank entry in TargetSites field indicates no results reported.

[1] = TD50_Rat_Note: TD50 is harmonic mean of more than one positive test
[2] = TD50_Rat_Note: no positive results, TargetSites_Rat_Female: no positive results
[3] = TargetSites_Rat_Female: no positive results
[4] = TD50_Rat_Note: TD50 is harmonic mean of more than one positive test, TargetSites_Rat_Female: stomach
[5] = TD50_Rat_Note: no positive results

## OCN(CO)c1nc(N(CO)CO)nc(N(CO)CO)n1
TargetSites_Rat_Female: kidney, mammary gland
  Potency: 10.2 mg/kg/day

## C=CC(O)c1ccc2c(c1)OCO2 (stereo not given)
[1]
  Potency: 18.4 mg/kg/day

## C#C[C@]1(O)CC[C@H]2[C@@H]3CCc4cc(O)ccc4[C@H]3CC[C@@]21C
TargetSites_Rat_Female: liver
  Potency: 0.2 mg/kg/day

## O=S1OCC2C(CO1)C1(Cl)C(Cl)=C(Cl)C2(Cl)C1(Cl)Cl (stereo not given)
[2]
  outcome: inactive; no positive results

## COC(=O)[C@H](Cc1ccccc1)NC(=O)[C@@H](N)CC(=O)O (H-Asp-Phe-OMe)
[2]
  outcome: inactive; no positive results

## CCC1(c2ccccc2)C(=O)NCNC1=O
[2]
  outcome: inactive; no positive results

## NC(N)=NC(N)=NCCc1ccccc1
[2]
  outcome: inactive; no positive results

## Nc1ccc(Cl)cc1
[2]
  outcome: inactive; no positive results
[3]
  Potency: 7.62 mg/kg/day

## c1ccc(C2CO2)cc1 (stereo not given)
[4]
  Potency: 55.4 mg/kg/day

## O=C(O)c1ccccc1
[5]
  outcome: inactive; no positive results
[2]
  outcome: inactive; no positive results

## NC1=NC(=O)C(c2ccccc2)O1 (stereo not given)
[2]
  outcome: inactive

## N#[N+]c1cc(CCN)ccc1[O-]
  Potency: 37.6 mg/kg/day

## Clc1cccc(-c2ccc(Cl)c(Cl)c2Cl)c1Cl
TD50_Rat_Note: TD50 is harmonic mean of more than one positive test, TD50_Rat_mmol was not calculated for this mixture, but Activiity S, TargetSites_Rat_Female: liver
  Potency: 4.8 mg/kg/day

## ClCC(Br)CBr (stereo not given)
TD50_Rat_Note: TD50 is harmonic mean of more than one positive test, TargetSites_Rat_Female: adrenal gland, mammary gland, nasal cavity, oral cavity, stomach
  Potency: 0.259 mg/kg/day

## CC(F)(Cl)Cl
[3]
  Potency: 5260 mg/kg/day

## COc1ccc(N)c(C)c1
TD50_Rat_Note: TD50 is harmonic mean of more than one positive test, TargetSites_Rat_Female: urinary bladder
  Potency: 470 mg/kg/day

## CN=[N+](C)[O-]
[1]
  Potency: 0.0466 mg/kg/day

## CNCCC(Oc1ccc(C(F)(F)F)cc1)c1ccccc1 (stereo not given)
[2]
  outcome: inactive; no positive results

## CN(N=O)C(=O)N[C@@H]1[C@@H](O)[C@H](O)[C@@H](CO)O[C@@H]1O
TD50_Rat_Note: positive test results only by intraperitoneal or intravenous injection, TD50 is harmonic mean of more than one positive, TargetSites_Rat_Female: kidney
  Potency: 0.963 mg/kg/day

## S=C=NCCc1ccccc1
[5]
  outcome: inactive; no positive results

## O=[N+]([O-])c1cccc2cccnc12
[4]
  Potency: 9.82 mg/kg/day

## CC[C@H](C)C(=O)O[C@H]1C[C@@H](C)C=C2C=C[C@H](C)[C@H](CC[C@@H]3C[C@@H](O)CC(=O)O3)[C@H]21
[2]
  outcome: inactive; no positive results

## Cn1cc(C(=O)[C@@H]2CCc3nc[nH]c3C2)c2ccccc21
[2]
  outcome: inactive; no positive results

## C=CCCl
TD50_Rat_Note: only experiment is NCI/NTP bioassay inadequate, TargetSites_Rat_Female: NTP bioassay inadequate
  outcome: ntp bioassay inadequate

## CCCCNC(=O)N(CCCC)N=O
TargetSites_Rat_Female: hematopoietic system, mammary gland
  Potency: 4.28 mg/kg/day

## FC(F)(Cl)C(F)(Cl)Cl
[2]
  outcome: inactive; no positive results

## O=C(Nc1nc(-c2ccc([N+](=O)[O-])o2)cs1)C(F)(F)F
TargetSites_Rat_Female: mammary gland
  Potency: 6.79 mg/kg/day

## CCBr
TD50_Rat_Note: no positive results are statistically significant, TargetSites_Rat_Female: no positive results
  Potency: 149 mg/kg/day

## O=C1c2ccccc2-c2ccc3c4c(ccc1c24)-c1ccccc1C3=O
[2]
  outcome: inactive; no positive results

## ClC(Cl)(Cl)Cl
TD50_Rat_Note: TD50 is harmonic mean of more than one positive test, TargetSites_Rat_Female: liver, mammary gland
  Potency: 27.8 mg/kg/day

## CN(CCCC(=O)O)N=O
  Potency: 0.982 mg/kg/day

## C[C@]12C/C(=C/O)C(=O)C[C@@H]1CC[C@@H]1[C@@H]2CC[C@@]2(C)[C@H]1CC[C@]2(C)O
TargetSites_Rat_Female: liver, lung, skin
  Potency: 66.9 mg/kg/day

## O=Nc1ccc(NO)cc1
TargetSites_Rat_Female: urinary bladder
  Potency: 106 mg/kg/day

## CNC(=O)c1c(N(C)N=O)ncn1C
TargetSites_Rat_BothSexes: nasal cavity
  Potency: 1 mg/kg/day

## Clc1cccc(-c2cccc(Cl)c2)c1
TD50_Rat_Note: no positive results are statistically significant, TD50_Rat_mmol was not calculated for this mixture, but Activiity Scor
  Potency: 157 mg/kg/day

## NNc1nc(-c2ccc([N+](=O)[O-])cc2)cs1
TD50_Rat_Note: TD50 is harmonic mean of more than one positive test, TargetSites_Rat_Female: mammary gland
  Potency: 3.21 mg/kg/day

## FC(Cl)C(F)(F)F (stereo not given)
[2]
  outcome: inactive

## C=CC1=C(C)C2=CC3=NC(=C(CC(=O)[O-])C4=NC(=C(C)C4=C([O-])[O-])C=c4[n-]c(c(C)c4CC)=CC1=N2)[C@@H](CCC(=O)[O-])[C@@H]3C.[Cu+2].[Na+].[Na+].[Na+]
[2]
  outcome: inactive; no positive results
